Data taken from paper PMC7957917 (ACS Medicinal Chemistry Letters, 2021).
Values joined by “and” are separate entries in the source; they are usually repeats but may differ in a detail not shown here. Identical values can stand only once. Like-named read-outs stand apart in the source and are kept apart here.

Tests used:
[1] = system: ICR mice; conditions: ip, cited from earlier work; for tolerated dose: four mice per group
[2] = system: rats; assay: Tolerability after intravenous treatment of rats; conditions: 1 mg/kg iv, three rats
[3] = system: ICR mice; assay: Acute toxicity study in mice; conditions: ip, HCl salts, four mice per group, doses 2.5, 5, 10, 15 mg/kg every 24 h
[4] = Pharmacokinetic characterization in rats; assay type: in vivo, Sprague Dawley rats; conditions: rat, ip, 2.5 mg/kg
[5] = system: WNV (strain New York 99); conditions: Huh-7 cells, 48 h postinfection
[6] = system: SARS-CoV-2; conditions: infected Calu-3 cells; cited from earlier work
[7] = system: RSV A2 strain; assay: Multicycle replication of RSV in A549 cells; assay type: cell-based, respiratory syncytial virus
[8] = system: DENV-2 (strain 16681); conditions: Huh-7 cells, 48 h postinfection

## CC(C)(C)[C@H](NC(=O)[C@H](CCCNC(=N)N)NC(=O)Cc1ccc(CNC(=N)N)cc1)C(=O)N[C@@H](CCCCN)C(=O)NCc1ccc(C(=N)N)cc1 [Inhibitor 2]
[1]; at 10 mg/kg
  number of deaths at next higher dose: 4 of 4 at 10 mg/kg
[1]
  tolerated dose: 5 mg/kg

## CC(C)(C)[C@H](NC(=O)[C@H](CCCNC(=N)N)NC(=O)Cc1ccc(CNC(=N)N)cc1)C(=O)N[C@@H](CCCNC(=N)N)C(=O)NCc1ccc(C(=N)N)cc1 [Inhibitor 1]
[1]; at 5 mg/kg
  number of deaths at next higher dose: all mice died and 4 of 4 at 5 mg/kg
[1]
  tolerated dose: 2.5 mg/kg
[2]
  tolerability after iv treatment: two of three rats died within 90 min

## CC(C)(C)[C@H](NC(=O)[C@H](CCONC(=N)N)NC(=O)Cc1ccc(CN)cc1)C(=O)N[C@@H](CCCCN)C(=O)NCc1ccc(C(=N)N)cc1 [Inhibitor 5]
[3]
  tolerated dose: 15 mg/kg

## CC(C)(C)[C@H](NC(=O)[C@H](CCONC(=N)N)NC(=O)Cc1ccc(CNC(=N)N)cc1)C(=O)N[C@@H](CCONC(=N)N)C(=O)NCc1ccc(C(=N)N)cc1 [Inhibitor 8]
[4]
  period with plasma levels >1000 ng/mL (∼1.3 μM): approximately 3 h
[5]
  antiviral potency against WNV (virus titers): significant antiviral potency
[6]
  reduction of SARS-CoV-2 replication: significant reduction of the SARS-CoV-2 replication
[2]
  tolerability after iv treatment: well-accepted in all three rats without any signs of side effects
[7]; MOI 1, 0.1-10 µM inhibitor, 16-72 h post infection
  RSV inhibition compared with reference inhibitor 1 (viral titers): strongest antiviral efficacy
[7]; initial tests, 10 µM
  inhibition of RSV replication at 10 µM: complete inhibition of virus replication
[3]
  tolerated dose: 15 mg/kg
[8]
  antiviral potency against DENV-2 (virus titers): significant antiviral potency
